Laboratory results from ChEMBL document CHEMBL1201862, “PubChem BioAssay data set” (2004).
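Method: 48-hour compound exposure of cells in 96-well plates, five concentrations, linear interpolation of endpoints. GI50 is the concentration that inhibits growth by half.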 Calls of active or inactive are those of the source. Rule as the data show it: active = GI50 up to about 1.1 µM and inactive = higher.

Key:
Assay in all cases: NCI tumour cell line growth inhibition, 48 h
UO-31 = tested on: UO-31
DU-145 = tested on: DU-145
KM12 = tested on: KM12
786-0 = tested on: 786-0
MDA-N = tested on: MDA-N
U-251 = tested on: U-251
OVCAR-3 = tested on: OVCAR-3
NCI-H226 = tested on: NCI-H226
HL-60 = tested on: HL-60
SK-MEL-5 = tested on: SK-MEL-5
SK-MEL-2 = tested on: SK-MEL-2
RPMI-8226 = tested on: RPMI-8226
M14 = tested on: M14
OVCAR-5 = tested on: OVCAR-5
ACHN = tested on: ACHN
TK-10 = tested on: TK-10
SK-MEL-28 = tested on: SK-MEL-28
HOP-62 = tested on: HOP-62
OVCAR-8 = tested on: OVCAR-8
SR = tested on: SR

Measured: GI50

CC(=O)O[C@H]1C#C/C=C\C#CC[C@@H]2C(=O)N[C@@H]12
inactive: UO-31 3.13 µM | DU-145 19.2 µM | KM12 > 100 µM | 786-0 5.42 µM | MDA-N 81.7 µM | U-251 20.9 µM | OVCAR-3 > 78.3 µM | NCI-H226 25.7 µM | HL-60 1.99 µM | SK-MEL-5 29.9 µM | SK-MEL-2 67.8 µM | RPMI-8226 21.3 µM | M14 43.8 µM | OVCAR-5 > 100 µM | ACHN 3.5 µM | TK-10 > 59.7 µM | SK-MEL-28 93.3 µM | HOP-62 7.94 µM | OVCAR-8 19.8 µM

OCC1C(O)C(O)[C@@H]2SCCN12 (stereo partly drawn)
inactive: UO-31 > 100 µM | DU-145 > 100 µM | KM12 > 100 µM | 786-0 > 100 µM | U-251 > 100 µM | OVCAR-3 > 100 µM | NCI-H226 > 100 µM | SR > 100 µM | HL-60 > 100 µM | SK-MEL-5 > 100 µM | SK-MEL-2 > 100 µM | RPMI-8226 > 100 µM | M14 > 100 µM | OVCAR-5 > 100 µM | ACHN > 100 µM | TK-10 > 100 µM | SK-MEL-28 > 100 µM | HOP-62 > 100 µM | OVCAR-8 > 100 µM

COc1ccc2c3c1O[C@H]1C(OC)C=CC4C(C2)N(Cc2cccs2)CCC341 (stereo partly drawn)
inactive: UO-31 > 100 µM | 786-0 > 100 µM | MDA-N 60 µM | OVCAR-3 45.4 µM | SR 75.5 µM | HL-60 24 µM | RPMI-8226 62.1 µM | M14 70.6 µM | OVCAR-5 > 100 µM | ACHN > 10 µM | TK-10 92.5 µM | HOP-62 > 100 µM | OVCAR-8 77.4 µM

O=S(=O)(CCn1c(Sc2ccccc2)c(Sc2ccccc2)c2ccccc21)c1ccccc1
inactive: UO-31 > 100 µM | DU-145 > 100 µM | KM12 > 100 µM | 786-0 > 100 µM | U-251 > 100 µM | OVCAR-3 > 100 µM | NCI-H226 > 100 µM | SR > 100 µM | HL-60 > 100 µM | SK-MEL-5 > 100 µM | SK-MEL-2 > 100 µM | RPMI-8226 > 100 µM | M14 > 100 µM | OVCAR-5 > 100 µM | ACHN > 100 µM | TK-10 > 100 µM | SK-MEL-28 > 100 µM | HOP-62 > 100 µM | OVCAR-8 > 100 µM

CC(=O)Nc1ccc(NC(=O)c2c(Cl)c(Cl)c(Cl)c(Cl)c2-c2nc3ccccc3[nH]2)cc1
inactive: UO-31 47.5 µM | DU-145 46.8 µM | KM12 28.2 µM | 786-0 49.1 µM | MDA-N 35.3 µM | OVCAR-3 48.1 µM | NCI-H226 35.4 µM | SR 27.2 µM | HL-60 25.9 µM | SK-MEL-5 28.6 µM | RPMI-8226 23 µM | M14 35.7 µM | OVCAR-5 67.1 µM | ACHN 39.2 µM | SK-MEL-28 40.2 µM | HOP-62 53.3 µM | OVCAR-8 45.1 µM

COc1ccccc1C(=O)N(C)c1ccc(Cl)c(C(=O)OC(C)C)c1
inactive: UO-31 28.7 µM | DU-145 42.5 µM | KM12 23.3 µM | 786-0 36.2 µM | MDA-N 40.8 µM | U-251 67.8 µM | OVCAR-3 71.3 µM | NCI-H226 > 100 µM | SK-MEL-5 22.8 µM | SK-MEL-2 61.5 µM | RPMI-8226 39.4 µM | M14 68.9 µM | OVCAR-5 > 100 µM | ACHN 84.9 µM | TK-10 34 µM | SK-MEL-28 49.7 µM | OVCAR-8 > 100 µM

Cc1ccc(Nc2c3c(c(C#N)c4nc5ccccc5n24)CCCC3)cc1
inactive: UO-31 12 µM | DU-145 52.7 µM | KM12 > 100 µM | 786-0 26.7 µM | MDA-N 28.7 µM | U-251 17.5 µM | OVCAR-3 11.1 µM | NCI-H226 21.7 µM | HL-60 5.53 µM | SK-MEL-5 10.7 µM | SK-MEL-2 13.1 µM | M14 21.6 µM | OVCAR-5 34 µM | ACHN 21.6 µM | TK-10 25.5 µM | SK-MEL-28 22.1 µM | OVCAR-8 18 µM

O=C(NC(Cc1c[nH]c2ccccc12)C(=O)O)/C(=C/c1ccccc1O)NC(=O)c1ccccc1 (stereo not drawn)
inactive: UO-31 6.78 µM | DU-145 43.4 µM | KM12 7.16 µM | 786-0 18.6 µM | MDA-N 7.05 µM | U-251 39.1 µM | NCI-H226 16.3 µM | SR > 100 µM | HL-60 > 100 µM | SK-MEL-5 > 100 µM | RPMI-8226 > 100 µM | M14 > 100 µM | OVCAR-5 > 100 µM | ACHN 19.2 µM | TK-10 37.7 µM | SK-MEL-28 > 100 µM | OVCAR-8 15.5 µM
